Test results from patent US9034906B2, “EP4 agonist” (Asahi Glass Company, Limited, priority 2008, dated 2015).
Blank lines part the entries; values can stand above or below the compound they belong to.

Experiments:
[1] = Effect on blood pressure and heart rate in mice; assay type: in vivo, mouse; settings: ICR mice, intravenous 0.01 mg/kg, isoflurane anesthesia
Protocol: Male ICR mice (5 weeks old, Japan SLC) were purchased, acclimated for 6 days and used for the test. The animals were treated and measured under isoflurane inhalation anesthesia (anesthesia introduced at 2.5%, maintained at 1.8-2.1%), while body temperature was kept at 37° C. with a Heat Controller (ATC-402, Unique Medical Co., Ltd.). A catheter for administration of test compounds was inserted into the left femoral vein, and another catheter was inserted into the right femoral artery and connected to a pressure transducer to record each parameter of hemodynamics.
Compound F, the carboxylate form of compound F and BPS were intravenously administered at a dose of 0.01 mg/5 mL/kg, and the effect on the mean blood pressure and heart rate was evaluated with computer software for the analysis of hemodynamics (Fluclet, Dainippon Sumitomo Pharma Co., Ltd.). To the control group was intravenously administered a solvent (1.2% ethanol solution) at 5 mL/kg in the same manner. The results are expressed as a ratio of change in each parameter before and after the drug administration. Three to 6 animals were used for each group, and the results were expressed as average±standard deviation.

[2] = system: dextran sodium sulfate-induced colitis; assay: Dextran sodium sulfate-induced colitis model in mice (C57BL/6); assay type: in vivo, mouse; settings: C57BL/6 mice, DSS, oral 0.3 mg/kg once a day
Protocol: Whether or not an IP agonist has an effect on such colitis model was determined using a selective IP agonist, BPS.
Female C57BL/6 mice (6 weeks old, Japan SLC) were purchased, acclimated for 1 week and used for the study. Except the normal group, the mice were allowed to freely drink a 3 or 2 w/v % DSS (MP Biochemicals, Lot No. 5653H and 5464H, respectively) solution for 1 week to induce colitis. BPS at a dose of 0.3 mg/kg and compound F at doses of 0.3 and 1 mg/kg were orally administered once a day, daily, from the start day of DSS drinking (day 0) to one day before autopsy (day 9). To the control group was orally administered a solvent (1 vol % ethanol solution) at 10 mL/kg in the same manner. The consistency of the stool was graded from score 0 to 4, with normal (0), partly loose stool (1), loose stool (2) and diarrhea (4). The blood feces was also graded from score 0 to 4, with normal (0), partly blood feces (1), blood feces (2) and blood feces plus proctorrhagia (4). The sum of both grades was defined as the stool score (maximum 8). Furthermore, the length of the large intestine was measured in the same manner as in Example 23. Six to 10 animals were used for each group, and the results are shown in average±standard deviation.

[3] = system: anti-Thy-1 antibody-induced glomerulonephritis; assay: Anti-Thy-1 antibody-induced glomerulonephritis model in rats; assay type: in vivo, rat; settings: Wistar rats, oral 0.3 mg/kg twice a day
Protocol: Male Slc: Wistar rats (6 weeks old, Japan SLC) were purchased, acclimated for 1 week and used for the study. Except the normal group, anti-Thy-1 antibody (mouse anti-CD90 antibody (UK-Serotech Ltd. Code:MCA47XZ, clone No: MRC OX-7, Lot No. 0303)) was administered once intravenously to the animals. A mixture of compound F and compound J (F:J=52:41, indicated as compound F/J) was orally administered from the day of the antibody administration (day 0) to day 6, daily, twice a day (morning and evening; each 0.3 mg/kg). After 3 days from the antibody administration, urine was collected for one day. On day 7 of the antibody administration, the animal was autopsied. The right kidney was isolated, weighed and fixed with formalin. Five to 8 animals were used for each group and the results were expressed as average±standard deviation.

[4] = In vitro metabolic stability: NADPH-independent β oxidation reaction in rat liver mitochondria fraction; assay type: in vitro ADME; settings: 37° C., 30 min, tested as isomer mixtures, average±SD of 3 experiments
Protocol: A mixture of the compound F and compound J of the present invention described in Table 1 (F:J=52:41, synthesized in Example 14), and a mixture of compounds wherein the tetrazole groups at C-1 of compound F and compound J are respectively substituted by carboxylic acid (referred to as carboxylate form, F:J=54:34, synthesized in Example 15) were tested.
First, a mitochondria fraction was prepared from the rat liver according to the following Reference A. Then, in reference to the method of […] et al. described in the following References B and C, an NADPH-independent β oxidation reaction was studied. The reaction was carried out at 37° C. for 30 min, and stopped with a methanol solution containing a suitable internal standard substance. Each compound was quantified by the internal standard method using a high performance liquid chromatography mass spectrometry apparatus (LC-MS/MS). The compound residual ratio after metabolic reaction of compounds F, J and each carboxylate form thereof in rat mitochondria fraction is shown in the following Table 2 in average±standard deviation of 3 experiments.

[5] = molecular target: T1, human EP4 (Homo sapiens, UniProt P35408); assay: Receptor affinity, tritium-labeled PGE2 binding to membranes of transfected COS-7 cells; settings: binding affinity ratio
T1 construct: expressed in transfected cells; host or cells: COS-7 (membranes)
Protocol: PG receptor affinity of compound F and compound J of the present invention was evaluated. Compound F used was one synthesized in Example 9, and compound J was prepared by separating and purifying the compound synthesized in Example 14 with a column (the same preparations were used in the following Examples). COS-7 cells were transfected with the genes of mouse EP4, human EP1-4 or human IP to overexpress the receptor and then the cell membranes were collected. […] The dissociation constant Kd value was obtained and inhibition constant Ki value of each test compound was determined in a conventional method.

[6] = system: dextran sodium sulfate-induced colitis; assay: Remission/relapse model of dextran sodium sulfate-induced colitis in mice, therapeutic; assay type: in vivo, mouse; settings: compound F 1 mg/kg, SASP 100 mg/kg, oral once a day for 50 days
Text: Next, therapeutic effect of compound F on colitis was studied in a chronic model. Female BALB/c mice, 6 weeks old, body weight about 20 g (Japan SLC) were purchased, acclimated for 1 week and used for the study. The mice were divided into a colitis induction group and a normal group. The colitis induction group was allowed to freely drink a 2.6 w/v % DSS (MP Biochemicals, M.W. 36,000-50,000, Lot No. 4556J) solution to induce colitis. On day 8 when the stool score (defined in Example 23) of the colitis induction group reached about 4.5, the mice were subdivided into a control group, a compound F 1 mg/kg administration group and a salazosulfapyridine (SIGMA, Lot No. 085K1930, hereinafter to be abbreviated as SASP) 100 mg/kg administration group. Then the mice were allowed to freely drink distilled water instead of DSS solution for 9 days (remission period). After the grouping, the stool score was evaluated every 3-4 days. […]
Compound F at a dose of 1 mg/kg and SASP at a dose of 100 mg/kg were orally administered once a day, daily, for 50 days from the initial remission period (day 8 from the start of 2.6 w/v % DSS drinking) to the fifth remission period (day 57 from the start of 2.6 w/v % DSS drinking). […] The remission ratio (%) was calculated as a ratio of mice in remission in each group. […]

[7] = system: T cell transfer colitis; assay: CD4+CD25- T cell transfer colitis model in mice; assay type: in vivo, mouse; settings: C.B-17/Icr-scid mice, oral 1 mg/kg once a day
Text: The effect on Crohn's disease, another type of inflammatory bowel disease, was studied. T cell transfer model is well known as a Crohn's disease model, which develops chronic […] or enteritis (see: References F, G, H). In addition, it can also be regarded as an animal model of intestinal Behcet's disease or simple ulcer, suffering from similar intestinal ulcer accompanied by activation of T cells (see: References I, J).
Female BALB/cA Jcl mice, 6 weeks old, body weight 19-23 g (CLEA Japan, Inc.) and female C.B-17/Icr-scid mice (6 weeks old, CLEA Japan, Inc.) were purchased, acclimated for 1 week and used for the study.
After laparotomy under ether anesthesia, BALB/cA Jcl mice were exsanguinated to death through the abdominal aorta and caudal vena cava, and the spleen was isolated. Splenocytes were prepared from the spleen and then CD4^+CD25^− T cells were prepared with a CD4^+ T cell Isolation Kit (No. 130-090-860, Milky Biotech Co., Ltd.) and CD25-Biotin antibody (No. 130-092-569, Milky Biotech Co., Ltd.). The cells were separated using the autoMACS Separator (Milky Biotech Co., Ltd.). The separated CD4^+CD25^− T cells were suspended in physiological phosphate buffer solution, and 2.5×10^5 cells per animal were intraperitoneally administered to C.B-17/Icr-scid mice to induce colitis.
One mg/kg of compound F or prednisolone was initially administered at 5 hr before transfer of CD4^+CD25^− T cells, and orally administered thereafter once a day, daily, for 20 days. To the control group was orally administered a solvent (1 vol % ethanol solution) at 10 mL/kg. A clinical endpoint was the sum of stool consistency score (0-5), fecal occult blood score (0-4) and body weight decrease score (0-5), termed as the Disease Activity Index score (hereinafter to be abbreviated as DAI score: highest score 14). The stool consistency score was graded for the hardness of stool as normal (0), slightly loose (1), somewhat loose (2), loose (3), considerably loose (4) and diarrhea (5). The fecal occult blood score was evaluated in the same manner as in Example 23. The body weight decrease score was graded for the changes in the body weight as increase (0), decrease of less than 3% (1), decrease of not less than 3% and less than 6% (2), decrease of not less than 6% and less than 9% (3), decrease of not less than 9% and less than 12% (4), and decrease of not less than 12% (5). Eight to 10 mice were used for each group and the results were expressed as average.

[8] = system: concanavalin A-induced hepatitis; assay: Concanavalin A-induced hepatitis model in mice, prophylactic; assay type: in vivo, mouse; settings: BALB/c mice, oral 1 hr before Con A; compound F 1 mg/10 mL/kg, prednisolone 5 mg/10 mL/kg
Protocol: The prophylactic effect of compound F on hepatitis was investigated using concanavalin A (hereinafter Con A)-induced hepatitis model.
BALB/c mice (female, 7 weeks old, Japan SLC) were purchased, acclimated for 1 week and used for the study. Except the no-induction group, Con A (type IV, Sigma-Aldrich) dissolved in saline was administered from the tail vein of the mice at a dose of 12.5 mg/10 mL/kg to induce hepatitis. Twenty hr later, the mice were subjected to laparotomy under ether anesthesia. A 0.5 mL of blood sample was collected from the caudal vena cava and heparinized plasma was obtained to measure plasma ALT and AST activities. Test substances were compound F (1 mg/10 mL solution), prednisolone (Nacalai Tesque, 5 mg/10 mL suspension (with 0.5 w/v % methylcellulose)) and water for injection (administered to the control group), which were orally administered at a volume of 10 mL/kg 1 hr before Con A injection. Seven to 9 animals were used for each group. After logarithmic transformation of the data, one-way analysis of variance was performed for statistical evaluation.

T1 sequence (P35408 whole entry): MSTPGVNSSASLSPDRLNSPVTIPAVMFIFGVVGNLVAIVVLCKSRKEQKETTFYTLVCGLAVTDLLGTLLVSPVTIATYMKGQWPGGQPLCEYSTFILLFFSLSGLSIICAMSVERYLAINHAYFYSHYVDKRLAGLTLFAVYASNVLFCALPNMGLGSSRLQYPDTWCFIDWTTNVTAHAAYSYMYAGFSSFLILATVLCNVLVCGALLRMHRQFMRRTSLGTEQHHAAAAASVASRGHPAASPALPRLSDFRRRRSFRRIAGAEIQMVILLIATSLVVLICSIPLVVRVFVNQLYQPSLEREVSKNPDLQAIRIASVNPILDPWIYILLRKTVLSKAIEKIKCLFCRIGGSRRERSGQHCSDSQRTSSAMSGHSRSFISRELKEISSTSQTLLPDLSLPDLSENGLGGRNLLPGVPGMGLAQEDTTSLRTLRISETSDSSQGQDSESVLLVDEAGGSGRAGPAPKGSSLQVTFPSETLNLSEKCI

SMILES: CC#CCC(C)[C@H](O)/C=C/[C@@H]1[C@H]2c3cccc(CCCC(=O)O)c3O[C@H]2C[C@H]1O (mixture of isomers) [BPS, beraprost sodium, reference compound]
Effect on heart rate [1]: on the increase and remained high even after 10 min | Maximum decrease ratio of mean blood pressure [1]: 38% | Effect on shortening of the large intestine [2]: no effect | Effect on stool score [2]: tendency toward aggravation

SMILES: Cc1cccc(C(C)[C@H](O)/C=C/[C@@H]2[C@@H]3[C@H](C[C@H]2O)O/C(=C\CCCc2nnn[nH]2)C3(F)F)c1 (mixture of isomers) [compound F/J, 4-[(Z)-(1S,5R,6R,7R)-6-[(1E,3R,4RS)-3-hydroxy-4-(m-tolyl)-1-pentenyl]-7-hydroxy-2-oxa-4,4-difluoro-bicyclo[3.3.0]octan-3-ylidene]-1-(tetrazol-5-yl)butane]
24-hr urine protein [3]: lower value than control | 24-hr urine volume [3]: of the same level as the normal group | Body weight [3]: shift similar to that of the control group | Relative kidney weight [3]: lower than control and near the normal | Renal histopathology: total glomerular cells, mesangial region and PCNA-positive cells in the glomerulus [3]: significantly suppressed the increase

Residual ratio of parent compound after β-oxidation reaction [4]: 90.1 ± 6.9% | Affinity for human EP4 higher than to human IP [5]: 40 fold
SMILES: Cc1cccc([C@H](C)[C@H](O)/C=C/[C@@H]2[C@@H]3[C@H](C[C@H]2O)O/C(=C\CCCc2nnn[nH]2)C3(F)F)c1 [Compound J, 4-[(Z)-(1S,5R,6R,7R)-6-[(1E,3R,4S)-3-hydroxy-4-(m-tolyl)-1-pentenyl]-7-hydroxy-2-oxa-4,4-difluoro-bicyclo[3.3.0]octan-3-ylidene]-1-(tetrazol-5-yl)butane]

SMILES: O=C(O)c1cc(/N=N/c2ccc(S(=O)(=O)Nc3ccccn3)cc2)ccc1O [SASP, salazosulfapyridine, reference compound]
Effect on stool score in remission and relapse periods [6]: did not show a clear effect

SMILES: C[C@]12C=CC(=O)C=C1CC[C@@H]1[C@@H]2[C@@H](O)C[C@@]2(C)[C@H]1CC[C@]2(O)C(=O)CO [prednisolone, reference compound]
Effect on body weight decrease score [7]: clearly worsened the score | Effect on fecal occult blood score [7]: suppressed an increase in the fecal occult blood score by almost the same level as the compound F administration | Effect on stool consistency score [7]: failed to show a clear effect | Effect on increase of plasma ALT and plasma AST activities [8]: significantly and strongly suppressed the increase
